Source: patent publication US8765953B2, “Compounds and methods for the treatment of pain and other diseases” (Aquilus Pharmaceuticals, Inc., priority 2008, dated 2014)

Key:
[1] = In-vitro mouse microsomal stability; assay type: in vitro ADME; conditions: mouse microsomes, 1 microMolar compound, at T = 60 minutes
Method: Human and mouse microsomal stability was determined for select compounds following the method of Houston (Houston, J. B; Biochem. Pharmacol. 47, (1994),1469).
1 μM concentration of compound and separate human and mouse microsomes (0.3 mg/mL, BD bioscience) were used in the in-vitro assay. To ensure proper energy supply for microsomal degradation of compound, an energy regenerating system comprised of 100 mM potassium phosphate, 2 mM NADPH, 3 mM MgCl2, pH=7.4. and the microsomal protein is added to each sample and the resulting suspension is then incubated in duplicate for 60 min at 37° C. in a rotary shaker. A control is run for each test agent in duplicate omitting NADPH to detect NADPH-free degradation. At T=0 and T=60 min., an aliquot is removed from each experimental and control reaction and then mixed with an equal volume of ice-cold Stop Solution (consisting of 0.3% acetic acid in acetonitrile containing haloperidol and diclofenac as internal standards). Stopped reactions are then incubated for at least ten minutes at −20° C., and an additional volume of water is then added. The samples are then centrifuged to remove precipitated protein, and the supernatants are then analyzed by LC-MS/MS to determine the percentage of compound remaining. The LC-MS/MS system used was an Agilent 6410 mass spectrometer coupled with an Agilent 1200 HPLC and a CTC PAL chilled autosampler, all controlled by MassHunter software (Agilent), or an ABI2000 mass spectrometer coupled with an Agilent 1100 HPLC and a CTC PAL chilled autosampler, all controlled by Analyst software (ABI). After separation on a C18 reverse phase HPLC column (Agilent, Waters, or equivalent) using an acetonitrile-water gradient system, peaks were analyzed by mass spectrometry (MS) using ESI ionization in MRM mode.

[2] = system: spinal nerve ligation (SNL) mouse model; experiment: Intrathecal (i.t.) SNL-mouse model of neuropathic pain, von Frey mechanical allodynia; assay type: in vivo, FVB male mice
Source text: (§1) To measure the neuropathic pain inhibiting affects of the MMP inhibitors of the present invention, the spinal nerve ligation (SNL) mouse model was run on a select number of compounds. This model which began with the work of Bennet and coworkers (Bennet, G. J. et al. Pain, 33, (1988), 87-107) and was optimized by Kim and Chung (Kim, S. H.; Chung, J. M. Pain, 50, (1992), 355-363) entails first, under magnification, the removal of one-third of the transverse process and then identifying and then dissecting free the L5 spinal nerve from the adjacent L4 spinal nerve in the mouse. The L5 spinal nerve is then tightly ligated using 6.0 silk suture. The nerve injury leads to hyperalgesia which manifests itself by enhanced responses to mechanical, heat and/or cooling stimuli. In this case, mechanical hyperalgesia is tested via Von Frey monofilaments in which filaments of varying thicknesses and bending force are individually applied to the plantar surface of the foot of the mouse. The threshold force necessary for paw withdrawal decreases dramatically after the nerve surgery. Potent pain inhibitors will reverse this affect resulting in greater force needing to be applied to cause the rodent paw to withdrawal.
Following preoperative baseline (Day −2) paw threshold measurement, FVB male mice were subjected to SNL injury (Day −1). The next day (Day 0) after SNL surgery, the animals were tested for post-operative baseline threshold measurements for mechanical allodynia; and the animals were then randomly assigned to one of 3 treatment groups (see Table 9). Over the course of the study, paw withdrawal threshold of these animals was measured in response to mechanical stimulation using the von Frey Monofilament Test.
To avoid systemic effects of the MMP inhibitors, the MMP inhibitors of the present invention were delivered into the cerebral spinal fluid (CSF) space around lumbosacral spinal cord via intrathecal (i.t.) administration, with the idea of targeting MMPs in the DRG, spinal cord, and spinal CSF. Intrathecal MMP inhibitor administration could then target not only spinal cord cells but also DRG cells. Each intrathecal (i.t.) injection was carried out according to the technique of Hylden and Wilcox (Hylden J L, Wilcox G L. Eur. J. Pharmacol., 67, (1980), 313-6) 5.2 mg of each of the MMP inhibitors were first dissolved in 140 microliters of DMSO and then put into 1260 microliters of 0.5% hydroxypropyl cellulose (HPC) in water to make a fine suspension composed of compound in 10% DMSO-0.5% hydroxypropyl cellulose. 10 microliters of the mixture was injected into the intrathecal space of male FVB mice (weighing 22-25 grams each and obtained from the Jackson Laboratories, Bar Harbor, Me.), by lumbar puncture in a volume of 10 μl/mouse using a Hamilton microsyringe via a 30 gauge needle inserted between lumbar vertebrae 5 and 6. In brief, each animal was held firmly by the pelvic girdle in one hand, while the needle was inserted into the tissue on the right side of the L5 or L6 spinous process. The needle was moved forward and slipped into the groove between the spinous process and transverse process and gently moved forward to the intervertebral space at ˜10° angle. As the needle was inserted (˜0.5 cm) within the vertebral column a tail flick was evident, and the solution was then injected.
Tactile Allodynia Test. Mechanical allodynia was measured using the calibrated von Frey filaments (Semmes-Weinstein monofilaments; Stoelting, Wood Dale, Ill., U.S.A.). The plantar surface of the left injured paw of each animal was tested as described by Chaplan et al. (Journal of Neuroscience Methods, 53, (1994), 55-63). The Fifty percent paw withdrawal threshold response was determined by sequentially increasing or decreasing the stimulus strength according to the “up-down method” of Dixon (Annual Review Pharmacology Toxicology, 20, (1980), 441-462). […]

[3] = system: spinal nerve ligation (SNL) mouse model; experiment: Intraperitoneal (i.p.) SNL-mouse model of neuropathic pain, von Frey mechanical allodynia; assay type: in vivo
Source text: as §1
Tactile Allodynia Test. Mechanical allodynia was measured using the calibrated von Frey filaments (Semmes-Weinstein monofilaments; Stoelting, Wood Dale, Ill., U.S.A.). The plantar surface of the left injured paw of each animal was tested as described by Chaplan et al. (Journal of Neuroscience Methods, 53, (1994), 55-63). The Fifty percent paw withdrawal threshold response was determined by sequentially increasing or decreasing the stimulus strength according to the “up-down method” of Dixon (Annual Review Pharmacology Toxicology, 20, (1980), 441-462). For mice, […] von Frey filaments were used, with approximately equal logarithmic incremental bending forces (von Frey number: 1.65, 2.36, 2.44, 2.83, 3.22, 3.61, 3.84, 4.08, and 4.17; equivalent to 0.005, 0.02, 0.03, 0.07, 0.17, 0.41, 0.69, 1.20, and 1.48 g force, respectively).
Prior to testing, each animal was placed in a suspended clear plastic chamber with a wire mesh bottom and acclimated for 15 minutes. Testing was initiated with the 0.07 g (handle marking of 2.83) applied perpendicularly to the plantar surface of the affected hind paw; each filament was applied with enough pressure to cause a buckle effect. The absence of a paw lifting/withdrawal response after 6 s prompted the use of the next higher weight filament. Paw withdrawal, indicating a positive response, prompted the use of a weaker filament. After the initial positive response (i.e., paw withdrawal), the testing continued for four additional measurements, and was used to calculate the response threshold. Four consecutive positive responses received a score of 0.001 g, and five consecutive negative responses (i.e., no paw withdrawal) received a score of 1.5 g.
Analyses for Tactile Allodynia Testing. The 50% paw withdrawal threshold was calculated (PWT; Luo and Calcutt, J. Pharmacology Experimental Therapeutics, 303(3), (2002), 1199-1205; Chaplan et al. Journal of Neuroscience Methods, 53, (1994), 55-63) using the formula: 10(Xf+κδ)/10,000 where Xf is the final von Frey filament used (log units), κ is a value that analyzes the response pattern (taken from the table published by Chaplan et al., 1994), and δ is the mean difference between stimuli (log units).
Except for the mode of administration, number of mice/group and the number of injections and amount of compound per injection, the rest of the study was done in the same manner (in regards to the surgeries and tactile allodynia testing and analysis) as Experiment 110. 3.2 mg of each of the MMP inhibitors #5 and #118 were dissolved in 320 microliters of DMSO. To the solution was then added 32 microliters of Tween 80, followed by 2850 microliters of phosphate buffered saline (PBS). This gave a final concentration of 10% DMSO, 1% Tween and 1 mg/ml compound. […]

[4] = system: mechanical nociception; conditions: in vivo; cited from earlier work
[5] = system: humans; conditions: humans (S-3304: animals or man); cited from earlier work
[6] = molecular target: MMP-9 (Homo sapiens, UniProt P14780); conditions: cited from earlier work
[7] = molecular target: T1, MMP-7 (Homo sapiens, UniProt P09237); conditions: cited from earlier work
T1 sequence (P09237 95-267): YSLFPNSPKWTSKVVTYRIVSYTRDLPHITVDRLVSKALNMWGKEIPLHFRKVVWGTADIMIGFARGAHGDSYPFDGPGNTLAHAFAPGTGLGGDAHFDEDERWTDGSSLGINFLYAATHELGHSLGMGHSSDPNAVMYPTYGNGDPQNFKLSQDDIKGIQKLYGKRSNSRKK

[8] = molecular target: MMP-8 (Homo sapiens, UniProt P22894); conditions: cited from earlier work
[9] = system: rat formalin test; conditions: cited from earlier work
[10] = molecular target: T2, MMP-2 (Homo sapiens, UniProt P08253); conditions: cited from earlier work
T2 sequence (P08253 110-660): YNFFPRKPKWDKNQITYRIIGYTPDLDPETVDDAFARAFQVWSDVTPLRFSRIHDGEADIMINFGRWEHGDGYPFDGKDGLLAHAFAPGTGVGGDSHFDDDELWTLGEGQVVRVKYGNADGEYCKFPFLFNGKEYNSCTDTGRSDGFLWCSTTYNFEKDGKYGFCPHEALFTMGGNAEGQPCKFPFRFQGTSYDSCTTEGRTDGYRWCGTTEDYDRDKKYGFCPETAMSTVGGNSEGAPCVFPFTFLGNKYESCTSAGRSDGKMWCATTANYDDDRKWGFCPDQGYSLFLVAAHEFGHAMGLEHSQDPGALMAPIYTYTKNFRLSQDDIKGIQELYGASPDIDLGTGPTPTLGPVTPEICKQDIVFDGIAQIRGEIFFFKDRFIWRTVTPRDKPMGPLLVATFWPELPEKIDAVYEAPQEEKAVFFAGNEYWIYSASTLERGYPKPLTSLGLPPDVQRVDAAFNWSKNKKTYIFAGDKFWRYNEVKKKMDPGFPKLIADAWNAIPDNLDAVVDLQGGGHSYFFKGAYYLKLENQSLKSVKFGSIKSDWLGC

[11] = molecular target: MMP-12 (Homo sapiens, UniProt P39900); conditions: cited from earlier work
[12] = molecular target: MMP-13 (Homo sapiens, UniProt P45452); conditions: cited from earlier work
[13] = molecular target: MMP-3 (Homo sapiens, UniProt P08254); conditions: cited from earlier work
[14] = system: L5 spinal nerve ligation (SNL) neuropathic pain model; conditions: in vivo; cited from earlier work
[15] = i.p. 100 μl/mouse daily (approx. 3.3 mg/Kg), day 1-5

Sequence of MMP-3 (P08254 100-477, species assumed): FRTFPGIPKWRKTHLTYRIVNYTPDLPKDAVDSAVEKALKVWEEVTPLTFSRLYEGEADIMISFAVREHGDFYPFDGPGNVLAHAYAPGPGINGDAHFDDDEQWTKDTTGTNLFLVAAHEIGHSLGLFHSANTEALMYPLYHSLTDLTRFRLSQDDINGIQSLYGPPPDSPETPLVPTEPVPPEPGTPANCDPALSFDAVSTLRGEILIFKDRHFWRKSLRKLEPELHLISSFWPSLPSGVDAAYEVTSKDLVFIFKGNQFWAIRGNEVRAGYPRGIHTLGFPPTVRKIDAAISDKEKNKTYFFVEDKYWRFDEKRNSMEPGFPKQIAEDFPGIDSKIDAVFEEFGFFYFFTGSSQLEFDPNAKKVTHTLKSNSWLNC
Sequence of MMP-12 (P39900 106-470, species assumed): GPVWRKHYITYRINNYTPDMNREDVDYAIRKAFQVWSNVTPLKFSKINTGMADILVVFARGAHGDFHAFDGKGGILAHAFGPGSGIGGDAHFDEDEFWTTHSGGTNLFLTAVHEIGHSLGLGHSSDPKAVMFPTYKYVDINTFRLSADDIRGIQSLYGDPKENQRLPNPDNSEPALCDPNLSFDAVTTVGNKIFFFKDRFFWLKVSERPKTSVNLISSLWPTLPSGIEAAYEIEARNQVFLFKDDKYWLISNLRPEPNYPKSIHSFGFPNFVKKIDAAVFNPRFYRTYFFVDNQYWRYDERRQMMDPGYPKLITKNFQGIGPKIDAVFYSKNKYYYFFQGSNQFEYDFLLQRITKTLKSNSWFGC
Sequence of MMP-8 (P22894 101-467, species assumed): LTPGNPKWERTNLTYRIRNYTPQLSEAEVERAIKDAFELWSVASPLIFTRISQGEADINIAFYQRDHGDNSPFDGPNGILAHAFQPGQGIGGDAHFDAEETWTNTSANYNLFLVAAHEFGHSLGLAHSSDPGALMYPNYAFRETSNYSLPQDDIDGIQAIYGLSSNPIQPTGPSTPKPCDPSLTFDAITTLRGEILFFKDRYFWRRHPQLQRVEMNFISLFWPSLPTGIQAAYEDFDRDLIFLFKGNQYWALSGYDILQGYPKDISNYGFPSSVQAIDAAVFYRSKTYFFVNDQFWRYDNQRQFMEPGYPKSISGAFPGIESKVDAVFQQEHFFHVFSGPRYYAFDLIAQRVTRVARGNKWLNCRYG
Sequence of MMP-9 (P14780 94-707, species assumed): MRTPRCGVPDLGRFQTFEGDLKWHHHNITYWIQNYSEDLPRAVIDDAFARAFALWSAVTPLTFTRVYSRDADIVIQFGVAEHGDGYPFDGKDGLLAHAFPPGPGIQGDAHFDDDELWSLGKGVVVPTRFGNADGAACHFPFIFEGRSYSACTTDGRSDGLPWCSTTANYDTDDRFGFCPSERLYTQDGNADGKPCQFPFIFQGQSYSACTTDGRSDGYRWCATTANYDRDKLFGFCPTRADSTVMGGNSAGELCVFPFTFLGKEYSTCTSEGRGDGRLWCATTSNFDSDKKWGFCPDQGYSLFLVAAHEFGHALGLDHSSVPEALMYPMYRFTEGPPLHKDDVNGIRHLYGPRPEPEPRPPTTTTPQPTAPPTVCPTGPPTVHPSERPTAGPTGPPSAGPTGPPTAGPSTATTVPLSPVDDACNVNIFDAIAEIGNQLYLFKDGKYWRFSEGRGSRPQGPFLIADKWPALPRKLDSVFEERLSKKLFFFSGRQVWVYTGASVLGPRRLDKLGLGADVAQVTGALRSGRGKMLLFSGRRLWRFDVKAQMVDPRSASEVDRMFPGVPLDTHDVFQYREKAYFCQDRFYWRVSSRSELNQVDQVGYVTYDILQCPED

## [2H]C([2H])([2H])c1ccc(C#Cc2ccc(S(=O)(=O)N[C@H](Cc3c[nH]c4ccccc34)C(=O)O)s2)cc1 [Compound 118, (R)-3-(1H-Indol-3-yl)-2-[5-(4-trideuteromethyl-phenylethynyl)-thiophene-2-sulfonylamino]-propionic acid-(D3, 98%)]
[1]; with NADPH
  % Mean Remaining Parent with NADPH (%): 85%
[1]; without NADPH (control)
  % Mean Remaining Parent without NADPH (%): 91%
[2]; i.t. 10 μl/mouse daily day 1-6
  Paw withdrawal threshold, mean, Day 5: 0.320 grams
  Paw withdrawal threshold, mean, Day 7: 1.024 grams
[2]; i.t. 10 μl/mouse daily day 1-6, testing 2 hr after first i.t. injection
  Paw withdrawal threshold, mean, Day 1: 0.321 grams
[2]; i.t. administration, as compared to vehicle and compound #5
  Reversal of allodynia: almost complete reversal of allodynia
[2]; i.t. study, post operative injury baseline, before treatment
  Paw withdrawal threshold, mean, Day 0 Postoperative Baseline: 0.077 grams
[2]; i.t. study, testing prior to SNL injury, before treatment
  Paw withdrawal threshold, mean, Day(-2) Pre-operative Baseline: 1.268 grams
[3]; [15]
  Paw withdrawal threshold, mean, Day 1: 0.170 grams
  Paw withdrawal threshold, mean, Day 2: 0.350 grams
  Paw withdrawal threshold, mean, Day 5: 1.470 grams
  Paw withdrawal threshold, mean, Day 6: 0.867 grams
  Paw withdrawal threshold, mean, Day 7: 0.250 grams
[3]; i.p. administration, by day 5
  Reversal of mechanical allodynia: complete reversal of mechanical alodynia
[3]; i.p. study, baseline before treatment
  Paw withdrawal threshold, mean, Day 0 Postoperative Baseline: 0.096 grams

## CNC(=O)[C@H](Cc1c[nH]c2ccccc12)NC(=O)[C@@H](CC(=O)NO)CC(C)C [GM6001]
[4]
  Effect on mechanical nociception: attenuate mechanical nociception

## CNC(=O)[C@@H](NC(=O)[C@H](CC(C)C)[C@H](O)C(=O)NO)C(C)(C)C [Marimastat]
[5]
  Musculoskeletal toxicities: time-dependent and dose-dependent musculoskeletal toxicities (arthralgia, myalgia, tendinitis)

## CCOCOC[C@H](C[C@H](C)C(=O)NO)NC(=O)c1ccc(Oc2ccccc2)cc1 [ONO-4817]
[6]
  Ki: 2.1 nM
[7]
  Ki: 2500 nM
[8]
  Ki: 1.1 nM
[9]; MMP-2 injected intrathecally
  Effect on the analgesic effect of intrathecal MMP-2 (Phase I agitation behavior): antagonized
[9]; inhibitor given alone
  Effect on the rat formalin test when given alone: no affect
[10]
  Ki: 0.73 nM
[11]
  Ki: 0.45 nM
[12]
  Ki: 1.1 nM
[13]
  Ki: 42 nM

## TIMP-1: endogenous matrix metalloproteinase inhibitor
[14]
  Effect on neuropathic pain in the SNL model: suppressed neuropathic pain
